SMILES strings stand for the structures.

The subject of one assay is KA-induced rat seizures. In words: Kainic acid (KA) induced seizures in rat pups, EEG recording in vivo. To be noted: KA 2 mg/kg s.c. The text has this:
Kainic Acid (KA) is a commonly used agent for creating an in vivo neonatal-like seizure model in rats for study. It is believed that this seizure model closely parallels human neonatal seizure disorders. KA, a glutamate receptor agonist, was used to induce neonatal-like seizures in postnatal (P) 7-12 day male Wistar rats. The rats were equipped with electrodes including recording and reference electrodes by standard means. There are many known methods for measuring parameters of seizures, in this example electrical signals were digitized using an analogue-to-digital converter for example a DigiData 1322A (Axon Instuments USA). The sampling interval can vary depending on the desired target interval. In this example, the sampling interval per signal was 200 […]s (5 kHz). For data analysis, several computer programs exist for capturing and analyzing these seizure parameters such as Clamp 9.2 (Axon Instruments, USA) and Origon 5.0 (Microcal Software, USA) used here. Interictal spikes were determined by typical means utilizing band-pass filtered raw data.
Many known methods exist for analyzing the power levels of different frequency components in a signal such as a signal recorded from a seizure episode. For example, power spectrum analysis can be performed after applying a Hamming window function. Unless otherwise indicated, power was calculated in 1-2 min time windows by integrating the root mean square value of the signal in frequency bands from 1 to 100 Hz (EEC band) and from 200 to 500 Hz (fast ripple band).
Pharmaceutical compositions of the present invention can be administered to seizure-induced rats to test the seizure modulatory properties of the pharmaceutical composition. In one exemplary method, the inhibition of NKCCl and its affect on seizures in rat pups was studied. Two days after implantation of recording electrodes, six P9-P10 rats received subcutaneous injection of KA (2 mg/kg) and six P9-10 control rats received subcutaneous 0.9% sodium chloride saline injections. 10-20 minutes after KA injection regular pattern of behavioral signs started, involving scratching-like movements of the hindpaws, loss of balance and turning on the side. Recurrent interictal and ictal electroencephalographic patterns occurred 20-80 minutes (61.2±10.4 min; mean±se) after KA injection in all rats from this experimental group (FIG. 4B). […] Interictal spikes usually occurred synchronously in the left and right hemispheres. Frequency of the interictal spikes was 1.43±0.06 Hz (n=23 seizures in 6 rats). Before transition to ictal patterns, interictal spikes were usually followed by fast ripple (100-500 Hz) and gamma-frequency oscillations (20-50 Hz). Tonic-clonic seizures were the most common type of seizures induced by KA in P9-10 rats. Ictal-tonic phase lasted 12.6±1.4 s (16 seizures in 5 rats). Population spikes of 18.7±1.2 Hz were characteristic of the tonic phase of KA-induced seizures (FIG. 4C). Tonic discharges were followed by clonic bursts (FIG. 4C). Large amplitude population spikes followed by 100-200 Hz ripples and 200-1200 ms gamma frequency after discharges characterized the clonic bursts. The mean duration of the clonic phase was 36.4±5 s (25 seizures in 6 rats). The ictal patterns were followed by postictal depression (FIG. 4 B-4C). During ictal EEG activity, motor activity consisted of scratching, jerky movements, turning on the side or on the back and frequent tail shaking. Five to ten recurrent seizures with an average interval 379±24.5 s were followed by periodic epileptiform discharges (PLEDs) (FIG. 4D).
In one exemplary experiment, a pharmaceutical composition of the present invention comprising bumetanide was compared to phenobarbital for effects on KA-induced rat seizures. Two days after implantation of recording electrodes, twenty-two P9-12 age-matched rats received subcutaneous injection with KA (2 mg/kg). […]

The test system of assay [1] is low-Mg^2+ induced recurrent seizures in the intact hippocampus. The assay can be described thus: Low-Mg2+ ACSF induced recurrent seizures in the intact hippocampus in vitro. As to conditions: phenobarbital 100 μM, bumetanide 10 μM or both, 120 min application; intact hippocampus of P4-6 rats. Type of assay: cell-based, rat. From the text:
High expression level of the Na^+ K^+-2Cl^− (NKCCl) co-transporter in immature neurons causes the accumulation of chloride ions and a depolarized Cl^− equilibrium potential (ECl). This is linked to a higher seizure propensity and poor EEG response in neonates to the barbiturates and benzodiazepines, conventional anticonvulsant drugs that target Cl^−-permeable GABAA-receptor (GABAA-R) operated channels. […] Recurrent ictal-like seizures were induced by low-Mg^+ ACSF in intact hippocampal preparations in vitro. […] Bumetanide decreased both seizure frequency and seizure power.
FIGS. 11A-11C are graphs of low-Mg^2+πinduced recurrent seizures in the intact hippocampus in vitro. […] First and last seizures from 5 hour recording are shown on an expanded time scale. Right, corresponding power spectra in the 0.1-1000 Hz frequency band. […] Summary data are taken from ten hippocampi. […] Power of the first seizure in each recording was considered as 100%. Data are taken from 18 recordings in 10 preparations from P4-6 rats.
FIGS. 12A-12C are graphs showing low efficiency of phenobarbital in neonatal seizures. FIG. 12A is a graph showing extracellular field potential recording in the CA3 pyramidal cell layer in the intact hippocampus of a P5 rat. Continuous application of low-Mg^2+ ACSF induced recurrent tonic-clonic seizures. […] The right portion corresponds to power spectra in the 0.1-1000 Hz frequency range. […] Data are from ten experiments that were combined. FIG. 12C is a graph showing power of recurrent seizures before, during and after phenobarbital application. Power of the first seizure in each recording was considered as 100%. Seizures were not depressed by phenobarbital indicating its low efficiency.
FIGS. 13A-13C are graphs showing that alteration of Cl^−-transport by bumetanide enhanced efficacy of phenobarbital in neonatal seizures. FIG. 13A is a graph of extracellular field potential recording in the CA3 pyramidal cell layer in the intact hippocampus of a P5 rat. Application of low-Mg^2+ ACSF induced recurrent seizures. […] These are shown on an expanded time scale. The right portion of FIG. 13A is a power spectra of extracellular field potential activity before and during application of drugs. FIG. 13B is a graph showing inter-seizure intervals before, during and after application of drugs. In 75% of experiments seizures were abolished (ISI>120 min) by simultaneous application of phenobarbital and bumetanide. FIG. 13C is a graph showing power of recurrent seizures before, during and after simultaneous application of phenobarbital and bumetanide. Power of the first seizure in each recording was considered as 100%. Seizures were depressed by combination of drugs.
FIGS. 14A and 14B are graphs showing alteration of Cl^−-transport for early-life seizure therapy. […]

Setting [2] is: P9-12 rats, phenobarbital 25 mg/kg or bumetanide 0.1-0.2 mg/kg i.p.

For the molecule `CCCCNc1cc(C(=O)O)cc(S(N)(=O)=O)c1Oc1ccccc1` [bumetanide, 3-(aminosulfonyl)-5-(butylamino)-4-phenoxybenzoic acid], the periodic epileptiform discharges entry in the assay on KA-induced rat seizures (bumetanide 0.1-0.2 mg/kg i.p.) was “occurred in all six rats”. Further, the “animals with recurrent ictal-clonic activity / EEG clonic seizures” value with KA-induced rat seizures (P9-12 rats, drug i.p. 10 min after KA (phenobarbital 25 mg/kg; bumetanide 0.1-0.2 mg/kg), 6 rats per group) was found to be 50%. In addition, in the assay with KA-induced rat seizures (setting [2]), the “duration of ictal-clonic phase” value was 12.5 ± 1.1 s; the “duration of ictal-tonic phase” value was determined as 9 ± 1.9 s; the “frequency of interictal spikes” value is given as 1.42 ± 0.07 Hz; the “mean duration of single ictal episode (seizure including interictal and ictal phases)” value turned out to be 32 ± 3.9 s. For the same molecule, in the assay on KA-induced rat seizures (setting [2]), the “mean interval between seizures” value turned out to be 360.1 ± 68.6 s and the “rats with ictal-tonic pattern / tonic-clonic seizures” value is given as 16.7%. The “increase of power of EEG activity in the 20 minute window following seizure onset” value with KA-induced rat seizures (compared to pre-ictal baseline, phenobarbital 25 mg/kg or bumetanide 0.1-0.2 mg/kg i.p., saline control 444.7±136.3%) is on record as 88.7±24.5%. Also, in assay [1], the seizure frequency result was “decreased” and the seizure power entry was “decreased”.

The values above are taken from US20070043034A1, “Chlorine Ion Uptake Modulators and Uses Thereof” (priority 2005, published 2007).
